Measured values reported in doi:10.1101/2021.04.08.439011v1 (biorxiv, 2021).
Read-outs that look alike come from different tables or passages of the source.

Assays:
[1] = molecular target: DAPK1 (Homo sapiens, UniProt P53355); details: 1 µM; binder
[2] = molecular target: BRSK2 (Homo sapiens, UniProt Q8IWQ3); details: 1 µM; binder
[3] = molecular target: MEK1 (Homo sapiens, UniProt Q02750); details: 1 µM; binder
[4] = molecular target: STK36 (Homo sapiens, UniProt Q9NRP7); details: 1 µM; binder
[5] = molecular target: TYRO3 (Homo sapiens, UniProt Q06418); details: 1 µM; binder
[6] = molecular target: FGFR1 (Homo sapiens, UniProt P11362); details: 1 µM; binder
[7] = molecular target: RET (Homo sapiens, UniProt P07949); details: 1 µM; binder
Sequence of RET (P07949 whole entry): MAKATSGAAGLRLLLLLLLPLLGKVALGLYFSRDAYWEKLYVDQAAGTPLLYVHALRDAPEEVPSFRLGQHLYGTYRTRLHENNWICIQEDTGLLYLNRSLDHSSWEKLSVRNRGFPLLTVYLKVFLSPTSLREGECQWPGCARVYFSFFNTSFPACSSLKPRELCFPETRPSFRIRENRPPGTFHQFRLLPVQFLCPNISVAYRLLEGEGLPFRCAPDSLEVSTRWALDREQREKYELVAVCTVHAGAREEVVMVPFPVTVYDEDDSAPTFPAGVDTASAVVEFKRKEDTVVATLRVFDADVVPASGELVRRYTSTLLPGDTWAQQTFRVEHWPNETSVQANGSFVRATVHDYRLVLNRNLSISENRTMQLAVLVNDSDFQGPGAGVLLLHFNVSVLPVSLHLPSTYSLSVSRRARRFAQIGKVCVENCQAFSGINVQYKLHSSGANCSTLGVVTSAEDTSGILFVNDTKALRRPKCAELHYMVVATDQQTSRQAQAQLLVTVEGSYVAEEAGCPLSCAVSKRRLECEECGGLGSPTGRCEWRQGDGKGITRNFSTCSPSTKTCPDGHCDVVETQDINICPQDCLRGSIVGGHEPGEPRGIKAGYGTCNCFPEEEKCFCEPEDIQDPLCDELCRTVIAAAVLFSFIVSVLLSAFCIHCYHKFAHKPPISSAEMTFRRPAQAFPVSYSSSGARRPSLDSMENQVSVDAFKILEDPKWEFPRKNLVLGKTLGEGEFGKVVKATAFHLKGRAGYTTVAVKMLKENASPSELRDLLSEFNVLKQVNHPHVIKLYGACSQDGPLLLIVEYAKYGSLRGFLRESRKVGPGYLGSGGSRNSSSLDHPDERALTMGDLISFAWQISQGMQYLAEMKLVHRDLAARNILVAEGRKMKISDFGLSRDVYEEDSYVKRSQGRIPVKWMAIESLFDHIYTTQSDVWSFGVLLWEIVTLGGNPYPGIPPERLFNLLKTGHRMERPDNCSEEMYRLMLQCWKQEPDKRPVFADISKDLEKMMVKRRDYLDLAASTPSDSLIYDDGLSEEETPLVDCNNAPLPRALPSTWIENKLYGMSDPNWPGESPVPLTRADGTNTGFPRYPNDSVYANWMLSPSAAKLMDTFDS

[8] = molecular target: GRK3 (Homo sapiens, UniProt P35626); details: 1 µM; binder
[9] = molecular target: ULK2 (Homo sapiens, UniProt Q8IYT8); details: 1 µM; binder
[10] = molecular target: YANK1 (Homo sapiens, UniProt Q8WU08); details: 1 µM; binder
[11] = molecular target: CDK5 (Homo sapiens, UniProt Q00535); details: 1 µM; binder
[12] = molecular target: ULK3 (Homo sapiens, UniProt Q6PHR2); details: 1 µM; binder
[13] = molecular target: PDPK1 (Homo sapiens, UniProt O15530); details: 1 µM; binder
[14] = molecular target: PCTK2 (Homo sapiens, UniProt Q00537); details: 1 µM; binder
[15] = molecular target: RIOK2 (Homo sapiens, UniProt Q9BVS4); details: 1 µM; binder
[16] = molecular target: PIM2 (Homo sapiens, UniProt Q9P1W9); details: 1 µM; binder
Sequence of PIM2 (Q9P1W9 whole entry): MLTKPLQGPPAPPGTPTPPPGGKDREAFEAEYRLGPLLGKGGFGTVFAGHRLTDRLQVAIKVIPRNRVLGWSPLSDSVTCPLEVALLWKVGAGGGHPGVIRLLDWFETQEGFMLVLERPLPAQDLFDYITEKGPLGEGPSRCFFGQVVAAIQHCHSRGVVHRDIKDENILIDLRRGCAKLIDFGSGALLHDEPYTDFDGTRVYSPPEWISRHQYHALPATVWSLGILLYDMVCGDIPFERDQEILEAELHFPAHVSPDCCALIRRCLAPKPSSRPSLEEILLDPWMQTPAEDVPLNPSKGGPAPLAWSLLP

[17] = molecular target: DRAK1 (Homo sapiens, UniProt Q9UEE5); details: 1 µM; binder
[18] = molecular target: TNK1 (Homo sapiens, UniProt Q13470); details: 1 µM; binder
Sequence of TNK1 (Q13470 whole entry): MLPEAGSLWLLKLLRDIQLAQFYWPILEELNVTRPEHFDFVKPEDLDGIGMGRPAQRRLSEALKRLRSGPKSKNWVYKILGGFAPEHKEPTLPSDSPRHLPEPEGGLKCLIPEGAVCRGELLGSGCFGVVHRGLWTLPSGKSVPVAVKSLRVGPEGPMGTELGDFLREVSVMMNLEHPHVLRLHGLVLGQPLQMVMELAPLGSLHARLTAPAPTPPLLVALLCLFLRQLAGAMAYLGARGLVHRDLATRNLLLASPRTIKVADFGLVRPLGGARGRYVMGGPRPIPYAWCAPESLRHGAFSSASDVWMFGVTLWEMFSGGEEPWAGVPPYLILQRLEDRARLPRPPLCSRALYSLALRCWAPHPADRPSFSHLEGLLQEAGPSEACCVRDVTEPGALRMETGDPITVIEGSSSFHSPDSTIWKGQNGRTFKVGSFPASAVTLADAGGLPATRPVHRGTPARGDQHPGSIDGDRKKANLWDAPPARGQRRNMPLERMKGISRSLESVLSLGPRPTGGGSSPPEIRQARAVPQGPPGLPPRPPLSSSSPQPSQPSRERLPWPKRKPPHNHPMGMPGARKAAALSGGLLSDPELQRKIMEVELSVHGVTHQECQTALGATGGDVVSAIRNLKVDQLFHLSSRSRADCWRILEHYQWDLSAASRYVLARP

[19] = molecular target: PKAC-beta (Homo sapiens, UniProt P22694); details: 1 µM; binder
[20] = molecular target: PIP5K1A (Homo sapiens, UniProt Q99755); details: 1 µM; binder
[21] = molecular target: MLK2 (Homo sapiens, UniProt Q02779); details: 1 µM; binder
[22] = molecular target: FAK (Homo sapiens, UniProt Q05397); details: 1 µM; binder
Sequence of FAK (Q05397 whole entry): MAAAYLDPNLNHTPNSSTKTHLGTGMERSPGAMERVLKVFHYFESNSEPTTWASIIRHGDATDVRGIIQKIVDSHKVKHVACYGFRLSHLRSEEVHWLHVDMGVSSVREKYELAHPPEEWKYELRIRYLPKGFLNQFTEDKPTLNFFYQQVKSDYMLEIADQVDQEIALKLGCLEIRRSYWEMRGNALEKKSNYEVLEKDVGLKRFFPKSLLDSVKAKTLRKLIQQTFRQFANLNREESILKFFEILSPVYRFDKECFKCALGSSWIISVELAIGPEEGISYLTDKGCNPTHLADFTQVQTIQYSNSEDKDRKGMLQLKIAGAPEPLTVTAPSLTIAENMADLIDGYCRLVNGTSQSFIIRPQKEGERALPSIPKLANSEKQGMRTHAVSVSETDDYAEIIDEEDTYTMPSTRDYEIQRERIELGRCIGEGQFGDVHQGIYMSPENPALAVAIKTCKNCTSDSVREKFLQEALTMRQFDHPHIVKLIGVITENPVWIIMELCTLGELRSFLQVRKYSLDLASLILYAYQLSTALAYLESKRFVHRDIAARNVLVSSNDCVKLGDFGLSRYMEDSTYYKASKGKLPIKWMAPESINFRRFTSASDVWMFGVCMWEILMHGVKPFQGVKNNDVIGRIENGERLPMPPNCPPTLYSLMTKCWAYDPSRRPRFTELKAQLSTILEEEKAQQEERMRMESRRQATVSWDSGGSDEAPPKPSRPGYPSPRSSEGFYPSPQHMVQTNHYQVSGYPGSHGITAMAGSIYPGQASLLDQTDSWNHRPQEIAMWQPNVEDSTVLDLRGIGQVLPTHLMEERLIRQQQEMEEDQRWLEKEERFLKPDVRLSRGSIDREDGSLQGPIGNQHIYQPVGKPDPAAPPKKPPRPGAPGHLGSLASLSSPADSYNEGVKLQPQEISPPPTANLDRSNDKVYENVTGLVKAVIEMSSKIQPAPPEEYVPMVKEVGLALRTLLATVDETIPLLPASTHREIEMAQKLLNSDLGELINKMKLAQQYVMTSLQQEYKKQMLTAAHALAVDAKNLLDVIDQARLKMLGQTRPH

[23] = molecular target: PIK3CA(I800L) (Homo sapiens, UniProt P42336, I800L); details: 1 µM; binder
[24] = molecular target: PRKCI (Homo sapiens, UniProt P41743); details: 1 µM; binder
[25] = molecular target: AMPK-alpha2 (Homo sapiens, UniProt P54646); details: 1 µM; binder
Sequence of AMPK-alpha2 (P54646 whole entry): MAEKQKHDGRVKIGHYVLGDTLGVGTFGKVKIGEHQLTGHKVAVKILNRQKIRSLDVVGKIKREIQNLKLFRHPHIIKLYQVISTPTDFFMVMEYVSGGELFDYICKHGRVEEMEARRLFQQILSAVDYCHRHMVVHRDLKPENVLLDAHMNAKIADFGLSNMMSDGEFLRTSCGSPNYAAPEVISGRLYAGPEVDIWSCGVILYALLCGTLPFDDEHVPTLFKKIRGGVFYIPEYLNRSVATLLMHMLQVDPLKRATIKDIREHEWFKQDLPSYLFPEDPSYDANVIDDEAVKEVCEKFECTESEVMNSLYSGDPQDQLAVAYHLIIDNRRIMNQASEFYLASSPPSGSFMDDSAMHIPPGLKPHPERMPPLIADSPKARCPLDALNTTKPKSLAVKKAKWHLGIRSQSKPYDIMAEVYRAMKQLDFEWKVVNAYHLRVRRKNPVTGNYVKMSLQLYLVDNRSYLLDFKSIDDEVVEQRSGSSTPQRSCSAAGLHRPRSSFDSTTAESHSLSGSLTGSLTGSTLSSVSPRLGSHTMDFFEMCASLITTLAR

[26] = molecular target: PRKG2 (Homo sapiens, UniProt Q13237); details: 1 µM; binder
[27] = molecular target: ABL1(F317I) (Homo sapiens, UniProt P00519, F317I); details: 1 µM, binder
Sequence of ABL1(F317I) (P00519 whole entry F317I): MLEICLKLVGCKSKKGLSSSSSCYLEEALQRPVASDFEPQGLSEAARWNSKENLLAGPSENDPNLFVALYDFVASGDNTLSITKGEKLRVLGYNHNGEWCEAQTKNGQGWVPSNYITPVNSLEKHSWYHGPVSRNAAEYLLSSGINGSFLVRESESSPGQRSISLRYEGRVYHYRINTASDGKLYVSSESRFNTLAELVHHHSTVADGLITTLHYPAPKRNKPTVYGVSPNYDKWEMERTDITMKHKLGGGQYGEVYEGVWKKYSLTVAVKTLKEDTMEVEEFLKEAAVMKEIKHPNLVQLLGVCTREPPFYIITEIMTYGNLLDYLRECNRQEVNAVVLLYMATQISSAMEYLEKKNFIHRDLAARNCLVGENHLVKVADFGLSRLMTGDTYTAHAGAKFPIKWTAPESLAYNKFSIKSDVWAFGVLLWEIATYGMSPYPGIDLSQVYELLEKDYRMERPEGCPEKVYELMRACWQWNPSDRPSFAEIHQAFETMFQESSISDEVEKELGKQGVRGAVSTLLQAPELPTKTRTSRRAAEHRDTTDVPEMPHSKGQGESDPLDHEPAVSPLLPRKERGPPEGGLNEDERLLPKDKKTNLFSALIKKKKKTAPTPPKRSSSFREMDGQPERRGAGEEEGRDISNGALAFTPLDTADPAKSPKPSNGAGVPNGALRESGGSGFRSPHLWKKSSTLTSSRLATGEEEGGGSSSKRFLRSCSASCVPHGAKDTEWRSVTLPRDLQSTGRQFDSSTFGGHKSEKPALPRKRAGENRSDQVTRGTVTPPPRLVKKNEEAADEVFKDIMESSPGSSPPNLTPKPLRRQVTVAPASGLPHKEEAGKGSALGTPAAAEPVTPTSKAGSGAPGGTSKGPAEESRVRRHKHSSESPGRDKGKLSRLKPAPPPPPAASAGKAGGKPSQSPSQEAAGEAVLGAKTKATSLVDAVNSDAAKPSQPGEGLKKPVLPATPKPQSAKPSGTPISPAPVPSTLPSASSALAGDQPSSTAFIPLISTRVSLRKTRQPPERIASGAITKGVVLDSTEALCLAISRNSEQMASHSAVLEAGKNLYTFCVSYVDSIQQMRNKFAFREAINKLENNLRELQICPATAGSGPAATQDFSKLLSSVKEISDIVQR

[28] = molecular target: ERBB2 (Homo sapiens, UniProt P04626); details: 1 µM; binder
[29] = molecular target: AKT2 (Homo sapiens, UniProt P31751); details: 1 µM; binder
[30] = molecular target: LRRK2(G2019S) (Homo sapiens, UniProt Q5S007, G2019S); details: 1 µM; binder

## CNc1ncc2cc(-c3ccc(-c4cccc(C)n4)cc3Cl)c(=O)n(C[C@H]3OC[C@H](N)CO3)c2n1 [compound 6, G-5555]
[1]
  Percent Control: 100%
[2]
  Percent Control: 100%
[3]
  Percent Control: 1%
[4]
  Percent Control: 2.9%
[5]
  Percent Control: 92%
[6]
  Percent Control: 100%
[7]
  Percent Control: 94%
[8]
  Percent Control: 72%
[9]
  Percent Control: 100%
[10]
  Percent Control: 3.7%
[11]
  Percent Control: 98%
[12]
  Percent Control: 52%
[13]
  Percent Control: 71%
[14]
  Percent Control: 100%
[15]
  Percent Control: 100%
[16]
  Percent Control: 100%
[17]
  Percent Control: 100%
[18]
  Percent Control: 100%
[19]
  Percent Control: 95%
[20]
  Percent Control: 67%
[21]
  Percent Control: 88%
[22]
  Percent Control: 100%
[23]
  Percent Control: 100%
[24]
  Percent Control: 63%
[25]
  Percent Control: 47%
[26]
  Percent Control: 94%
[27]; nonphosphorylated
  Percent Control: 100%
[27]; phosphorylated
  Percent Control: 96%
[28]
  Percent Control: 100%
[29]
  Percent Control: 100%
[30]
  Percent Control: 100%
